This note sets out measurements from patent publication US20250186433A1, “ACSS2 INHIBITORS AND METHODS OF USE THEREOF” (EpiVario, Inc., priority 2017, published 2025).

The structures appear in SMILES notation.

The target in the experiment is ACSS2 (Homo sapiens, UniProt Q9NR19). Put plainly: biochemical.
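Note: Pyrophosphatase-coupled ACSS2 enzyme assay, 10 nM protein incubated 90 min at 37 °C with ATP, CoA and acetate, released phosphate read by Biomol Green absorbance at 620 nm.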

Sequence of ACSS2 (Q9NR19 whole entry): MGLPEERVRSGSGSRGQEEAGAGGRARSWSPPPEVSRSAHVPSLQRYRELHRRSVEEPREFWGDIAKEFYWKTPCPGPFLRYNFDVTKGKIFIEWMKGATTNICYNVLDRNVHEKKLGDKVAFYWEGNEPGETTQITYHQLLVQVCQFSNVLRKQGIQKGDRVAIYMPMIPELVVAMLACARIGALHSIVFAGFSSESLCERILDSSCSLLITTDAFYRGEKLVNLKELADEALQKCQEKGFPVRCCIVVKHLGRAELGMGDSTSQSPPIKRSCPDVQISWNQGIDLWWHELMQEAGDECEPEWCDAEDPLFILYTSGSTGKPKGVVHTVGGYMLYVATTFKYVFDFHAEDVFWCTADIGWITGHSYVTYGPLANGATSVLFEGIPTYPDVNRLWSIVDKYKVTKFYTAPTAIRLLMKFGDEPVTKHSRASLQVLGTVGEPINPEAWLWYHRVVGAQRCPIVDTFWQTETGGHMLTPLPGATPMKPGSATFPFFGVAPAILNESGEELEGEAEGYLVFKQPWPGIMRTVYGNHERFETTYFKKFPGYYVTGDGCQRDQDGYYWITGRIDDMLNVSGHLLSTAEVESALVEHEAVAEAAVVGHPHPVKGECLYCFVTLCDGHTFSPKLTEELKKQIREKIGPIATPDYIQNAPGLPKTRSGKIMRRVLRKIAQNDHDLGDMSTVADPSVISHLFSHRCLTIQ
Method: The assay is based on a coupling reaction with Pyrophosphatase: ACSS2 is converting ATP+CoA+Acetate=>AMP+pyrophosphate+Acetyl-CoA (Ac-CoA). Pyrophosphatase converts pyrophosphate, a product of the ACSS2 reaction, to phosphate which can be detected by measuring the absorbance at 620 nm after incubation with the Biomol green reagent (Enzo life Science, BML-AK111).
At the end of the reaction, Biomol Green was added for 30 minutes at RT and the activity was measured by reading the absorbance at 620 nm.

The term IC50 denotes the concentration at which inhibition is half-maximal. Lower therefore signals greater potency. `CC1=NN(c2ccc(OC(F)F)cc2)C(=O)C1C(=O)Nc1ccnc(C#N)c1` (stereo not shown) [compound 504, N-(2-cyanopyridin-4-yl)-1-(4-(difluoromethoxy)phenyl)-3-methyl-5-oxo-4,5-dihydro-1H-pyrazole-4-carboxamide] displayed an IC50 of 100 to 1000 nM.

`CCC(F)(F)c1cccc(NC(=O)C2C(=O)N(c3ccc(OC)c(-c4cccc(C)n4)c3)N=C2C)c1` (stereo not shown) [compound 536, N-(3-(1,1-difluoropropyl)phenyl)-1-(4-methoxy-3-(6-methylpyridin-2-yl)phenyl)-3-methyl-5-oxo-4,5-dihydro-1H-pyrazole-4-carboxamide] yielded a half-maximal inhibitory concentration (IC50) of 0.01 to 6 nM.

As for `CCC(F)(F)c1cccc(NC(=O)C2C(=O)N(c3ccc(OC)c(-c4ccncc4C)c3)N=C2C)c1` (stereo not shown) [compound 532, N-(3-(1,1-difluoropropyl)phenyl)-1-(4-methoxy-3-(3-methylpyridin-4-yl)phenyl)-3-methyl-5-oxo-4,5-dihydro-1H-pyrazole-4-carboxamide], the half-maximal inhibitory concentration (IC50) was in the range of 0.01 to 6 nM.

`CCC(F)(F)c1cccc(NC(=O)C2C(=O)N(c3ccc4ccn(C(=O)c5ccc(O)cc5)c4c3)N=C2C)c1` (stereo not shown) [compound 482, N-(3-(1,1-difluoropropyl)phenyl)-1-(1-(4-hydroxybenzoyl)-1H-indol-6-yl)-3-methyl-5-oxo-4,5-dihydro-1H-pyrazole-4-carboxamide] had an IC50 of 0.01 to 6 nM.

Take `COc1ccccc1Cc1cc(-c2ccccc2)cc(N2N=C(C)C(C(=O)Nc3cccc(C(C)(F)F)c3)C2=O)c1` (stereo not shown) [compound 467]: the concentration for half-maximal inhibition (IC50) lay in the range of 6 to 100 nM.

Take `CC1=NN(c2cc(-c3cccnc3)cc(-c3cccc4[nH]ccc34)c2)C(=O)C1C(=O)Nc1cccc(C(C)(F)F)c1` (stereo not shown) [compound 465]: the IC50 fell in the range of 6 to 100 nM.

`C/C=C(\F)c1cccc(NC(=O)C2C(=O)N(c3ccc(OC(F)F)cc3)N=C2C)c1` (stereo not shown) [compound 494, (Z)-1-(4-(difluoromethoxy)phenyl)-N-(3-(1-fluoroprop-1-en-1-yl)phenyl)-3-methyl-5-oxo-4,5-dihydro-1H-pyrazole-4-carboxamide] showed an IC50 of 0.01 to 6 nM.

The compound `CCC(F)(F)c1cccc(NC(=O)C2C(=O)N(c3ccc(OC)c(-c4ncccc4C)c3)N=C2C)c1` (stereo not shown) [compound 535, N-(3-(1,1-difluoropropyl)phenyl)-1-(4-methoxy-3-(3-methylpyridin-2-yl)phenyl)-3-methyl-5-oxo-4,5-dihydro-1H-pyrazole-4-carboxamide] displayed a half-maximal inhibitory concentration (IC50) of 0.01 to 6 nM.

With `C/C=C(/F)c1cccc(NC(=O)C2C(=O)N(c3ccc(OC(F)F)cc3)N=C2C)c1` (stereo not shown) [compound 495, (E)-1-(4-(difluoromethoxy)phenyl)-N-(3-(1-fluoroprop-1-en-1-yl)phenyl)-3-methyl-5-oxo-4,5-dihydro-1H-pyrazole-4-carboxamide], the half-maximal inhibitory concentration (IC50) was in the range of 0.01 to 6 nM.

`CCC(F)(F)c1cccc(NC(=O)C2C(=O)N(c3ccc4ccn(CCc5ccccc5)c4c3)N=C2C)c1` (stereo not shown) [compound 477, N-[3-(1,1-difluoropropyl)phenyl]-3-methyl-5-oxo-1-[1-(2-phenylethyl)indol-6-yl]-4H-pyrazole-4-carboxamide]: the IC50 is 6 to 100 nM.

In turn, `CCC(F)(F)c1cccc(NC(=O)C2C(=O)N(c3cnc(OC)cn3)N=C2C)c1` (stereo not shown) [compound 512, N-(3-(1,1-difluoropropyl)phenyl)-1-(5-methoxypyrazin-2-yl)-3-methyl-5-oxo-4,5-dihydro-1H-pyrazole-4-carboxamide] had an IC50 of 100 to 1000 nM.

Consider `CC1=NN(c2cc(-c3cccnc3)cc(-c3ccc4cc[nH]c4c3)c2)C(=O)C1C(=O)Nc1cccc(C(C)(F)F)c1` (stereo not shown) [compound 473], for which the 50% inhibitory concentration (IC50) fell in the range of 6 to 100 nM.

In turn, `CCC(F)(F)c1cccc(NC(=O)C2C(=O)N(c3ccc(OC)c(-c4ccccc4)n3)N=C2C)c1` (stereo not shown) [compound 498, N-(3-(1,1-difluoropropyl)phenyl)-1-(5-methoxy-6-phenylpyridin-2-yl)-3-methyl-5-oxo-4,5-dihydro-1H-pyrazole-4-carboxamide] showed an IC50 of 0.01 to 6 nM.
